Structures can show the parent of a compound that is named as a salt.
Experiments:
[1] = test system: honeybees; test: Test for Confirmation of Honeybee Repelling Effect 1, 2, 3 (feeding station with 40% sugar water); format: in vivo; settings: for Corrected repelling rate (%) Honeybees: Test 3, 5 mL
Excerpt: The following were used as the test samples for Examples: 2% by weight per volume ethanol solutions of octane (a-1), tetradecane (a-2), heptadecane (a-3), nonadecane (a-4), 2-acetylfuran (b-1), 5-methyl-2-furaldehyde (b-2), furfural (b-3), furaneol (c-1), 2-acetylpyrrole (d-1), 1-benzylpyrrole (d-2), 1-octanol (e-1), 1-dodecanol (e-2), and 1-octadecanol (e-3), respectively; and 2% by weight per volume aqueous solutions of furfuryl alcohol (b-4), sotolon (c-2), and α-angelicalactone (c-3), respectively.
The following were used as the test samples for Comparative Examples: 2% by weight per volume ethanol solutions of eicosane (carbon number 20, p-1), heneicosane (carbon number 21, p-2), 2-methyloctane (branched alkane, p-3), tributyl o-acetylcitrate (p-4), and 1-methylpyrrole (p-5), respectively; and 2% by weight per volume aqueous solutions of 2-methyltetrahydrofuran-3-one (p-6) and acetic acid (p-7), respectively.
Ethanol alone and water alone were used as samples for correction.
The cotton pads 13 were impregnated with 40% sugar water (80 g), after which disposable wooden chopsticks 15 (80 mm in length) were placed over the cotton pads on the lid surface as “landing areas,” for use as “test insect (honeybee) feeding station 1” 10.
A nest box of test insects (honeybees) (1 colony: approx. 6,000 bees) was placed at the center of a glass hothouse (bottom face: 5 m×10 m, height (highest part): 3 m, temperature: 25° C.), and the aforementioned “test insect (honeybee) feeding station 1” was installed at a location 2 meters away from the nest box.
After confirming that at least five test insects (honeybees) were feeding at the above “test insect (honeybee) feeding station 1” installed in the hothouse, test 1 was conducted to measure the “approaching count (Mz)” and “landing count (My)” and calculate the “landing rate (Mx).”
Next, the “test insect (honeybee) feeding station 1” installed in the hothouse was replaced with each “test insect (honeybee) feeding station 2” which was let to stand still for 5 minutes, after which test 2 was conducted to measure the “approaching count (Nz)” and “landing count (Ny)” and calculate the “landing rate (Nx).”
Approaching count: Total number of times a honeybee has approached within 25 cm of the cotton wools at the feeding station during 5 minutes
Landing count: Total number of honeybees that have remained for at least 1 second on the cotton pads at the feeding station during 5 minutes
Landing rate (%): (Landing count/Approaching count)×100
The “repelling rate Q” and “corrected repelling rate R” were calculated from the above “landing rates” using the calculation formula below. For the “repelling rate of sample for correction” used to calculate the “corrected repelling rate R,” the repelling rate of each of the samples for correction above (ethanol alone or water alone being a solvent for the active ingredient) was used.
Repelling rate Q (%)={(Mx)−(Nx)}/(Mx)×100
Corrected repelling rate R (%)={Repelling rate of test sample−Repelling rate of sample for correction}/{100−Repelling rate of sample for correction}×100
The following were used as the test samples for Examples: 0.1% by weight per volume ethanol solutions of 3-methyl-2-butanol (e-4), carvacrol (x-1), isoeugenol (x-2), cinnamyl alcohol (x-3), diacetone alcohol (x-4), α-amylcinnamaldehyde (x-5), 3-methyl-2-butenal (x-6), valeraldehyde (x-7), ethyl cinnamate (x-8), methyl cinnamate (x-9), ethyl isovalerate (x-10), isoamyl formate (x-11), 5-ethyl-2-methylpyridine (x-12), 2-(3-phenylpropyl)pyridine (x-13), 2,6-dimethylpyridine (x-14), ß-ionone (x-15), 2-acetylthiazole (x-16), butylamine (x-17), and citronella oil (x-18), respectively; and a 0.1% by weight per volume aqueous solution of (3-amino-3-carboxypropyl)dimethylsulfonium chloride (x-19).

[2] = test system: stink bugs; test: Test for Confirmation of Stink Bug Behaviors against Active Ingredients 1, 2, 3 (treated filter paper); format: in vivo, southern green stink bugs
Excerpt: The test samples in “Test for Confirmation of Honeybee Repelling Effect 1” above were used.
A liquid calcium carbonate/ethanol dispersion was applied on the entire interior wall of a KP cup (100 mm in diameter×90 mm in height) and air-dried, after which a filter paper (90 mm in diameter) was fixed on the bottom face of the KP cup using double-sided tape. A different filter paper (90 mm in diameter) was cut along its diameter and the resulting semicircle-shaped paper was uniformly treated with 400 μL of each test sample or sample for correction, and then placed over the filter paper fixed on the aforementioned bottom face of the KP cup by allowing the circular parts to overlap, for use as a testing device.
The “repelling rate Y” and “corrected repelling rate Z” were calculated from the above “time A (sec)” and “time B (sec)” using the calculation formula below. For the “repelling rate of sample for correction” used to calculate the “corrected repelling rate Z,” the repelling rate of each of the samples for correction above (ethanol alone or water alone being a solvent for the active ingredient) was used.
Corrected repelling rate Z (%)={Repelling rate of test sample−Repelling rate of sample for correction}/{100−Repelling rate of sample for correction}×100
For the test samples, the test samples in “Test for Confirmation of Honeybee Repelling Effect 2” above were used.

[3] = 0.1% by weight per volume solution
[4] = Test 3, 0.1% by weight per volume solution, 400 μL
[5] = Test 2, honeybees, 0.1% by weight per volume solution, 5 mL (active ingredient 5 mg)
[6] = Test 2, 0.1% by weight per volume solution, 400 μL
[7] = 2.0% by weight per volume solution

Molecule | Corrected repelling rate (%) Honeybees [1, 3] [%] | Corrected repelling rate (%) Stinkbugs [2, 4] | further results
CC(=O)OC/C=C(\C)CCC=C(C)C [y-27, geranyl acetate] | 68.0 | ∘ | repelling of stink bugs and other injurious insects to be exterminated (in words) [2]: not repelling stink bugs
C=CCOC(=O)CCC1CCCCC1 [y-43, allyl cyclohexanepropionate] | 90.4 | ∘ | repelling of stink bugs and other injurious insects to be exterminated (in words) [2]: not repelling stink bugs
COc1ccc(C=O)cc1 [y-4, anisaldehyde] | 91.5 | – | Corrected repelling rate (%) Stinkbugs ([2]; 0.5 h, 0.1 % strength): x (“x” for rates “not <0”)
c1ccc2cnccc2c1 [y-79, isoquinoline] | 92.3 | ∘ | repelling of stink bugs and other injurious insects to be exterminated (in words) [2]: not repelling stink bugs
CC/C=C/C=O [y-10, trans-2-pentenal] | 55.4 | ∘ | repelling of stink bugs and other injurious insects to be exterminated (in words) [2]: not repelling stink bugs
C1CCNC1 [y-91, pyrrolidine] | 61.2 | – | Corrected repelling rate (%) Stinkbugs ([2]; 0.5 h, 0.1 % strength): x (“x” for rates “not <0”)
CC(C)CCOC=O [x-11, isoamyl formate] | – | – | Corrected repelling rate R (%) [1, 5]: 15.1%; Corrected repelling rate (%) Stinkbugs [2, 6]: <0%
CC(=O)c1ccco1 [b-1, 2-acetylfuran] | – | – | Corrected repelling rate R (%) ([1]; Test 1, honeybees, 2% by weight per volume solution, 5 mL sprayed (active ingredient 0.1 g)): 60.3%; Corrected repelling rate (%) Stinkbugs ([2]; Test 1, 2% by weight per volume solution, 400 μL on filter paper, 30 minutes): <0%
CCCCCCCC1CCC(=O)O1 (centres unmarked) [y-63, γ-undecalactone] | – | – | repelling of stink bugs and other injurious insects to be exterminated (in words) [2]: not repelling stink bugs
c1ccc2ncccc2c1 [y-81, quinoline] | 80.2 | ∘ | repelling of stink bugs and other injurious insects to be exterminated (in words) [2]: not repelling stink bugs
COc1cc(OC)cc(C(=O)O)c1 [y-76, 3,5-dimethoxybenzoic acid] | 22.1 | ∘ | –
CCc1ccc(C)nc1 [x-12, 5-ethyl-2-methylpyridine] | – | – | Corrected repelling rate R (%) [1, 5]: 72.4%; Corrected repelling rate (%) Stinkbugs [2, 6]: <0%
CCCCCCC(=O)OCC [y-54, ethyl heptanoate] | 20.9 | ∘ | –
CC(C)C(C)O (centres unmarked) [e-4, 3-methyl-2-butanol] | – | – | Corrected repelling rate R (%) [1, 5]: 17.7%; Corrected repelling rate (%) Stinkbugs [2, 6]: <0%
CCCCCCCCCCCC(=O)OCCCC [y-37, butyl laurate] | 33.0 | ∘ | –
CCCCCC1CCCCC(=O)O1 (centres unmarked) [y-66, 6-undecanolactone] | 69.3 | ∘ | repelling of stink bugs and other injurious insects to be exterminated (in words) [2]: not repelling stink bugs
CCOc1cc(C=O)ccc1O [y-6, ethyl vanillin] | 60.3 | – | Corrected repelling rate (%) Stinkbugs ([2]; 0.5 h, 0.1 % strength): x (“x” for rates “not <0”)
COC(=O)C=Cc1ccccc1 [x-9, methyl cinnamate] | – | – | Corrected repelling rate R (%) [1, 5]: 93.3%; Corrected repelling rate (%) Stinkbugs [2, 6]: <0%
CC(C)=CC=O [x-6, 3-methyl-2-butenal] | – | – | Corrected repelling rate R (%) [1, 5]: 91.8%; Corrected repelling rate (%) Stinkbugs [2, 6]: <0%
CCCCN [x-17, butylamine] | – | – | Corrected repelling rate R (%) [1, 5]: 83.4%; Corrected repelling rate (%) Stinkbugs [2, 6]: <0%

Molecule | Corrected repelling rate (%) Honeybees [1, 3] [%] | Corrected repelling rate (%) Stinkbugs [2, 4] | further results
COc1cc(C=O)ccc1O [y-7, vanillin] | 61.2 | ∘ | repelling of stink bugs and other injurious insects to be exterminated (in words) [2]: not repelling stink bugs
CCc1occc(=O)c1O [y-95, ethyl maltol] | 27.6 | ∘ | –
c1cnccn1 [y-57, pyrazine] | 51.3 | ∘ | repelling of stink bugs and other injurious insects to be exterminated (in words) [2]: not repelling stink bugs
CCOC(=O)c1ccc(O)cc1 [y-17, ethyl 4-hydroxybenzoate] | 56.6 | ∘ | repelling of stink bugs and other injurious insects to be exterminated (in words) [2]: not repelling stink bugs
CCCOC(=O)c1ccc(O)cc1 [y-16, propyl 4-hydroxybenzoate] | 89.7 | – | –
CCC(=O)OCc1ccccc1 [y-23, benzyl propionate] | 26.0 | – | –
CCCCOC(=O)CCC [y-35, butyl butyrate] | 61.7 | – | –
(−)-menthyl succinate [y-32] | 57.7 | – | –
CCCCCCCCCCCCCCCCCC(=O)O [y-74, stearic acid] | 33.7 | – | –
CCOC(=O)Cc1ccccc1 [y-24, ethyl phenylacetate] | – | – | Corrected repelling rate (%) Honeybees [1, 7]: 55.5%
Cc1ccc2ncccc2c1 [y-80, 6-methylquinoline] | 74.7 | – | –
O=Cc1ccco1 [b-3, furfural] | – | – | Corrected repelling rate R (%) ([1]; 2 % strength): 93.6%
c1ccc2scnc2c1 [y-78, benzothiazole] | 87.7 | – | –
CCC=O [y-11, propionaldehyde] | 64.0 | – | –
COC[C@@H]1CCCN1 [y-93, (S)-2-(methoxymethyl)pyrrolidine] | 66.9 | – | –
c1cnc2c(n1)CCCC2 [y-86, 5,6,7,8-tetrahydroquinoxaline] | – | – | Corrected repelling rate (%) Honeybees [1, 7]: 73.2%
CCCCCC(=O)O [y-72, hexanoic acid] | 89.4 | – | –
CC(=O)OC1CC(C)CCC1C(C)C (centres unmarked) [y-26, menthyl acetate] | 76.4 | – | –
CCC(=O)O [p-8, propionic acid, reference compound] | – | – | Corrected repelling rate (%) Honeybees [1, 7]: <0%

Reference: US20230210116A1, “HONEYBEE REPELLENT” (EARTH CORPORATION, priority 2020, published 2023)
